The values below come from patent US12441695B2, “Substituted thiadiazinone dioxide and preparation method therefor, herbicidal composition, and application therefor” (Qingdao Kingagroot Chemical Compound Co., Ltd., priority 2019, dated 2025).

Molecules are shown by their SMILES.

Data set [1] concerns monocotyledonous and dicotyledonous weeds. The data set is described as follows: Experiment on weeding effect in post-emergence stage (weeds). It is filed as in vivo. Conditions: 600 g/ha active ingredient plus water 450 kg/ha, 3 weeks after application, fresh weight control rate; for Amaranthus retroflexus activity level (growth control rate): fomesafen-resistant Amaranthus retroflexus. The essentials: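 Greenhouse pot-grown weeds and crops sprayed post-emergence 2–3 weeks after sowing with compound in acetone/Tween 80/water. Fresh-weight growth control scored after 3 weeks on a 0–5 scale (5: >85%, 0: <5%).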

Data set [2] concerns major crops (wheat, corn, rice, soybean, cotton, oilseed rape, millet, sorghum). The data set is described as follows: Experiment on weeding effect in post-emergence stage (crops). It is filed as in vivo. Conditions: 600 g/ha active ingredient plus water 450 kg/ha, 3 weeks after application; for corn plant damage level (growth control rate): crop corn; for rice plant damage level (growth control rate): crop rice; for soybean plant damage level (growth control rate): crop soybean. The essentials:
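Weed and crop seeds were sown in soil-filled pots, covered with 0.5–2 cm soil and grown in a greenhouse. Plants were sprayed 2–3 weeks after sowing using a spray tower, with compound dissolved in acetone plus Tween 80 and diluted in water. Effect was expressed as fresh-weight growth control rate.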

`CC(C)N1C(=O)c2cc(F)cc(Cl)c2NS1(=O)=O` [Compound 144]: in data set [1], the “Amaranthus retroflexus activity level (growth control rate)” value (from here on “Amaranthus retroflexus activity level”) is reported as 5 (Level 5: growth control rate is above 85%), the “Digitaria sanguinalis activity level (growth control rate)” value (“Digitaria sanguinalis activity level” for short) is listed as 5 (Level 5: growth control rate is above 85%), the “Echinochloa crus-galli activity level (growth control rate)” value (“Echinochloa crus-galli activity level” below) is 5 (Level 5: growth control rate is above 85%) and the “Setaria viridis activity level (growth control rate)” value (“Setaria viridis activity level” for short) is listed as 5 (Level 5: growth control rate is above 85%). Also, in data set [2], the “corn plant damage level (growth control rate)” value (“corn plant damage level” below) is 1 (Level 1: growth control rate is greater than or equal to 500 and less than 200%); the “rice plant damage level (growth control rate)” value (from here on “rice plant damage level”) was 0 (Level 0: growth control rate is less than 5%); the “soybean plant damage level (growth control rate)” value (from here on “soybean plant damage level”) is 1 (Level 1: growth control rate is greater than or equal to 500 and less than 200%).
With `CC(C)N1C(=O)c2cc(F)c(F)cc2NS1(=O)=O` [Compound 146], in data set [1], the “Amaranthus retroflexus activity level” value is reported as 5 (Level 5: growth control rate is above 85%); the “Digitaria sanguinalis activity level” value was 4 (Level 4: growth control rate is greater than or equal to 60% and less than 85%); the “Echinochloa crus-galli activity level” value is 5 (Level 5: growth control rate is above 85%); the “Setaria viridis activity level” value is recorded as 5 (Level 5: growth control rate is above 85%). In data set [2], the “corn plant damage level” value was 1 (Level 1: growth control rate is greater than or equal to 500 and less than 200%); the “rice plant damage level” value is given as 0 (Level 0: growth control rate is less than 5%); the “soybean plant damage level” value is 1 (Level 1: growth control rate is greater than or equal to 500 and less than 200%).
For the compound `CC(C)N1C(=O)c2cc(F)ccc2N(C(=O)C(C)(C)C)S1(=O)=O` [Compound 182], in data set [1], the “Amaranthus retroflexus activity level” value was 3 (Level 3: growth control rate is greater than or equal to 40% and less than 60%). Further, in data set [2], the “corn plant damage level” value is given as 0 (Level 0: growth control rate is less than 5%), the “rice plant damage level” value is 0 (Level 0: growth control rate is less than 5%) and the “soybean plant damage level” value is on record as 0 (Level 0: growth control rate is less than 5%).
In the case of `CC(C)N1C(=O)c2cc(F)cc(F)c2N(C(C)OC(=O)OC2CCCCC2)S1(=O)=O` (racemic) [Compound 227], in data set [1], the “Amaranthus retroflexus activity level” value is 3 (Level 3: growth control rate is greater than or equal to 40% and less than 60%). Further, in data set [2], the “corn plant damage level” value is listed as 0 (Level 0: growth control rate is less than 5%); the “rice plant damage level” value is 1 (Level 1: growth control rate is greater than or equal to 500 and less than 200%); the “soybean plant damage level” value was 1 (Level 1: growth control rate is greater than or equal to 500 and less than 200%).
`CC(C)OC(=O)OC(C)N1c2ccc(F)cc2C(=O)N(C(C)C)S1(=O)=O` (racemic) [Compound 193]: the “Amaranthus retroflexus activity level” value in data set [1] was 4 (Level 4: growth control rate is greater than or equal to 60% and less than 85%). Also, in data set [2], the “corn plant damage level” value is recorded as 0 (Level 0: growth control rate is less than 5%), the “rice plant damage level” value is listed as 0 (Level 0: growth control rate is less than 5%) and the “soybean plant damage level” value is given as 0 (Level 0: growth control rate is less than 5%).
Regarding `CC(C)N1C(=O)c2cccnc2NS1(=O)=O` [F, reference compound], in data set [1], the “Amaranthus retroflexus activity level” value was 2 (Level 2: growth control rate is greater than or equal to 20% and less than 40%); the “Digitaria sanguinalis activity level” value was 2 (Level 2: growth control rate is greater than or equal to 20% and less than 40%); the “Echinochloa crus-galli activity level” value is 2 (Level 2: growth control rate is greater than or equal to 20% and less than 40%); the “Setaria viridis activity level” value was 2 (Level 2: growth control rate is greater than or equal to 20% and less than 40%). Also, in data set [2], the “corn plant damage level” value was 1 (Level 1: growth control rate is greater than or equal to 500 and less than 200%); the “rice plant damage level” value was 1 (Level 1: growth control rate is greater than or equal to 500 and less than 200%); the “soybean plant damage level” value was 1 (Level 1: growth control rate is greater than or equal to 500 and less than 200%).
On to `CC(C)N1C(=O)c2cc(F)ccc2N(C)S1(=O)=O` [Compound 49], for which, in data set [1], the “Amaranthus retroflexus activity level” value was 5 (Level 5: growth control rate is above 85%); the “Echinochloa crus-galli activity level” value is 3 (Level 3: growth control rate is greater than or equal to 40% and less than 60%); the “Setaria viridis activity level” value was 3 (Level 3: growth control rate is greater than or equal to 40% and less than 60%). In data set [2], the “corn plant damage level” value was 0 (Level 0: growth control rate is less than 5%), the “rice plant damage level” value is on record as 0 (Level 0: growth control rate is less than 5%) and the “soybean plant damage level” value is on record as 0 (Level 0: growth control rate is less than 5%).
As to `COCC(=O)N1c2ccc(F)cc2C(=O)N(C(C)C)S1(=O)=O` [Compound 185], the “Amaranthus retroflexus activity level” value in data set [1] is 3 (Level 3: growth control rate is greater than or equal to 40% and less than 60%). Also, in data set [2], the “corn plant damage level” value is 0 (Level 0: growth control rate is less than 5%), the “rice plant damage level” value is on record as 0 (Level 0: growth control rate is less than 5%) and the “soybean plant damage level” value is given as 0 (Level 0: growth control rate is less than 5%).
As to `CCCOC(=O)N1c2ccc(F)cc2C(=O)N(C(C)C)S1(=O)=O` [Compound 186], the “Amaranthus retroflexus activity level” value in data set [1] is 4 (Level 4: growth control rate is greater than or equal to 60% and less than 85%). Also, in data set [2], the “corn plant damage level” value is 0 (Level 0: growth control rate is less than 5%), the “rice plant damage level” value is 0 (Level 0: growth control rate is less than 5%) and the “soybean plant damage level” value was 0 (Level 0: growth control rate is less than 5%).
Take `CC(C)OC(=O)OC(C)N1c2c(F)cc(F)cc2C(=O)N(C(C)C)S1(=O)=O` (racemic) [Compound 226]: the “Amaranthus retroflexus activity level” value in data set [1] is listed as 5 (Level 5: growth control rate is above 85%). For the same compound, in data set [2], the “corn plant damage level” value was 1 (Level 1: growth control rate is greater than or equal to 500 and less than 200%); the “rice plant damage level” value is on record as 0 (Level 0: growth control rate is less than 5%).
Take `CCC(=O)N1c2c(F)cc(F)cc2C(=O)N(C(C)C)S1(=O)=O` [Compound 214]: in data set [1], the “Amaranthus retroflexus activity level” value is reported as 5 (Level 5: growth control rate is above 85%); the “Digitaria sanguinalis activity level” value was 5 (Level 5: growth control rate is above 85%); the “Echinochloa crus-galli activity level” value was 4 (Level 4: growth control rate is greater than or equal to 60% and less than 85%); the “Setaria viridis activity level” value is 5 (Level 5: growth control rate is above 85%). The “corn plant damage level” value in data set [2] was 0 (Level 0: growth control rate is less than 5%).
Regarding `CC(C)OC(=O)N1c2ccc(F)cc2C(=O)N(C(C)C)S1(=O)=O` [Compound 63], in data set [1], the “Amaranthus retroflexus activity level” value is given as 5 (Level 5: growth control rate is above 85%); the “Digitaria sanguinalis activity level” value is 3 (Level 3: growth control rate is greater than or equal to 40% and less than 60%); the “Echinochloa crus-galli activity level” value was 4 (Level 4: growth control rate is greater than or equal to 60% and less than 85%); the “Setaria viridis activity level” value is 3 (Level 3: growth control rate is greater than or equal to 40% and less than 60%). For the same compound, in data set [2], the “corn plant damage level” value is given as 0 (Level 0: growth control rate is less than 5%), the “rice plant damage level” value is given as 0 (Level 0: growth control rate is less than 5%) and the “soybean plant damage level” value is on record as 0 (Level 0: growth control rate is less than 5%).
On to `CC(C)N1C(=O)c2cc(F)cc(Br)c2N(C(=O)C2CC2)S1(=O)=O` [Compound 199], for which, in data set [1], the “Amaranthus retroflexus activity level” value is 5 (Level 5: growth control rate is above 85%) and the “Setaria viridis activity level” value is on record as 5 (Level 5: growth control rate is above 85%). In addition, in data set [2], the “corn plant damage level” value was 0 (Level 0: growth control rate is less than 5%); the “rice plant damage level” value is 1 (Level 1: growth control rate is greater than or equal to 500 and less than 200%).
Regarding `CC(=O)N1c2c(Br)cc(F)cc2C(=O)N(C(C)C)S1(=O)=O` [Compound 154], in data set [1], the “Amaranthus retroflexus activity level” value was 5 (Level 5: growth control rate is above 85%), the “Digitaria sanguinalis activity level” value is 5 (Level 5: growth control rate is above 85%), the “Echinochloa crus-galli activity level” value is given as 5 (Level 5: growth control rate is above 85%) and the “Setaria viridis activity level” value is on record as 5 (Level 5: growth control rate is above 85%). In data set [2], the “corn plant damage level” value was 0 (Level 0: growth control rate is less than 5%); the “rice plant damage level” value is on record as 0 (Level 0: growth control rate is less than 5%); the “soybean plant damage level” value is 1 (Level 1: growth control rate is greater than or equal to 500 and less than 200%).
